Assay results reported in patent US4117117A, “Tridecapetide having gastrin effect” (Max Planck-Gesellschaft zur Forderung der Wissenschaften, priority 1976, dated 1978).

How the values were obtained:
[1] = stability compared to natural minigastrin; details: as compared to the natural minigastrin
[2] = test system: secretion activity of the stomach and of the pancreas; assay: gastrin activity (stimulation of the secretion activity of the stomach and of the pancreas)

Substance: L-leucyl-L-glutamyl-L-glutamyl-L-glutamyl-L-glutamyl-L-glutamyl-L-ananyl-L-tyrosyl-glycyl-L-tryptophyl-L-leucyl-L-asparagyl-L-phenylalanineamide [11-leucine-minigastrin]
- stability [1]: improved stability
- gastrin activity [2]: satisfactory
- stimulation of the secretion activity of the stomach and of the pancreas ([2]; just like naturally-occurring gastrin): causes stimulation
